These results are taken from patent US7282522B2, “Hydroxamic acid derivatives and the method for preparing thereof” (Amorepacific Corporation, priority 2003, dated 2007).

For one data set, the system named is white guinea pigs. Description: Phototoxicity test (UVA irradiation). To be noted: for Evaluation (phototoxicity): 1%(w/v) solution, UVA 15 J/cm^2; for Phototoxic index: 50 μl of 1%(w/v) solution, UVA 320~380 nm 15 J/cm^2, observed 24, 48 and 72 hours.
A further data set concerns rabbits. Description: Primary skin irritation test on animals (Draize P.I.I.). To be noted: depilated back; for P.I.I. (Primary Irritation Index): 0.5 ml of 1% solution in 1,3-butylene glycol:ethanol 7:3, observed 24 or 72 hours later; for Evaluation (skin irritation): 1% solution, according to Draize's P.I.I.
The subject of another data set is procollagen type I. Description: Effect on collagen biosynthesis (procollagen type I ELISA) in human fibroblasts. The data set is classed as cell-based. To be noted: 10^−4M, 24 hours, serum-free medium, relative to control group = 100. Here is the method: Human fibroblasts were seeded into 24-well plate at 1×10^5 cells per well and then cultured to 90% of growth.
For each supernatant, procollagen production was measured with procollagen type I ELISA kit.
(An ELISA detects its analyte on a solid surface through an enzyme-linked reagent.)

A further data set has as its system collagenase. Briefly: Inhibition of collagenase expression in human fibroblasts (ELISA kit). As to conditions: 10^−4M, 24 hours, serum-free medium, relative to control group = 100. Format: cell-based. In a few lines: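 Serum-starved human fibroblasts were treated for 24 h with 10^−4M test material in serum-free DMEM. Collagenase in the culture fluid was measured by sandwich ELISA read at 405 nm. Values are expressed as % of the untreated control (=100).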

The next data set addresses T1, RARγ (Homo sapiens, UniProt P13631).
T1 construct: expressed in transfected cells; host or cells: CV-1 cells (ATCC)
T1 sequence (P13631 1-454): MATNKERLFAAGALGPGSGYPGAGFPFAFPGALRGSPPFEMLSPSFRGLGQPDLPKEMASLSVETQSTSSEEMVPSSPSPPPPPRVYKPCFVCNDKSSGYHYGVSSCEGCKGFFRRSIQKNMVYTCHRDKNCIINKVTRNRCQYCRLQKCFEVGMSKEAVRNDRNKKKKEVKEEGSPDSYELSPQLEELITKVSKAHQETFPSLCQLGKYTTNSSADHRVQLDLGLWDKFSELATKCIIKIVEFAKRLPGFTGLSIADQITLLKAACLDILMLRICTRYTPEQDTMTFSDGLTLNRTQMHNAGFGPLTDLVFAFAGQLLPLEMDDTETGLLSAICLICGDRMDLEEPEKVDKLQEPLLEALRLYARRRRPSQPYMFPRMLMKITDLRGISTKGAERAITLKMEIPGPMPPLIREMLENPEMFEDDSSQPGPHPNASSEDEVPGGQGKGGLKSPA
Description: RARE-luciferase reporter assay in transfected CV-1 cells (affinity to retinoic acid receptor), RARγ. To be noted: treated 24 hours at final concentration 10^−4M, control group 5000. The data set is classed as cell-based. In a few lines: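 CV-1 cells in DMEM with 2.5% FBS, 5,000 per well, transfected 24 h after seeding with 10 ng pECE-RARα, pECE-RARγ, 100 ng RARE-tk-Luc reporter and 100 ng β-galactosidase vector. Read-out is RARE-driven luciferase.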

The next data set concerns the target T2, RARα (Homo sapiens, UniProt P10276).
T2 construct: expressed in transfected cells; host or cells: CV-1 cells (ATCC)
T2 sequence (P10276 1-462): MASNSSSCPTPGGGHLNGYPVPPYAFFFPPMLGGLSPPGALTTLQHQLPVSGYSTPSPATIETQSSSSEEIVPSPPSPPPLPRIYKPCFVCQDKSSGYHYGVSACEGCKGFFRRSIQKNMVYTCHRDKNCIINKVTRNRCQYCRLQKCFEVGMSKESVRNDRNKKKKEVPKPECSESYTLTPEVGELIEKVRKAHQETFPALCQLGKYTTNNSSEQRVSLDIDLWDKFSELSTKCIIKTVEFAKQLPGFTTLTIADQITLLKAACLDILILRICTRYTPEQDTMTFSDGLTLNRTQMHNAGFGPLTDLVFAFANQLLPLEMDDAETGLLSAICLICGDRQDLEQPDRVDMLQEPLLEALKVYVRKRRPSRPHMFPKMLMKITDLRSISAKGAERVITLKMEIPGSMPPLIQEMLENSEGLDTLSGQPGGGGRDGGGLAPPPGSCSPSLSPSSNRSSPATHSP
Briefly: RARE-luciferase reporter assay in transfected CV-1 cells (affinity to retinoic acid receptor), RARα. The data set is classed as cell-based. As to conditions: treated 24 hours at final concentration 10^−4M, control group 1000. In a few lines: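 CV-1 cells co-transfected with pECE-RARα or pECE-RARγ, RARE-tk-Luc reporter and β-galactosidase vector. Starting 24 h post-transfection, cells were treated for 24 h with compounds at a final 10^−4M; luciferase reporter read-out.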
On the technique in general: A reporter such as luciferase makes a cellular process visible.

A further data set has as its system elastase. Description: Inhibition of elastase expression in human fibroblasts (ELISA kit). As to conditions: 10^−4M, 24 hours, serum-free medium, relative to control group = 100. Format: cell-based. In a few lines: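 Elastase in fibroblast culture fluid quantified by sandwich ELISA: 3 h capture, then chromophore-conjugated secondary antibody, then colour development, stopped with 1M sulfuric acid. Absorbance read at 405 nm. Expression given as % of the untreated control absorbance, with control set to 100.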

Description for rabbits: Test was performed using fifty-six (56) of healthy male rabbits whose backs were depilated. […] 0.5ml of the test sample solution was applied to the right site of 2.5 cm×2.5 cm region on each of the depilated back. Left site with no sample treated was compared as a control. 24 hours or 72 hours later, skin abnormality such as erythema, crust and edema was observed.
Based on the score of skin response, skin irritation was evaluated according to Draize's P.I.I.(Primary Irritation Index) and compared with retinoic acid.

As for `CN(C(=O)C12CC3CC(CC(C3)C1)C2)c1ccc(C(=O)NO)cc1` [Example 21, N-[4-(N-hydroxycarbamoyl)phenyl]adamantyl-N-methylcarboxyamide], in the data set on white guinea pigs, the “Evaluation (phototoxicity)” value is reported as “No phototoxicity (lower value than 0.5, criterion value to be estimated as no phototoxicity)” and the Phototoxic index is on record as 0. Further, in the data set with rabbits, the “P.I.I. (Primary Irritation Index)” value came out at 0.345 and the “Evaluation (skin irritation)” value is reported as “No irritation”. Moreover, the “Collagen biosynthesis (%)” value in the data set on procollagen type I stood at 118%. Besides, the “Collagenase expression (%)” value in the data set on collagenase is given as 69%. Further, on RARγ, the “Luciferase activity RARγ” value came to 11200. In addition, the “Luciferase activity RARα” value on RARα was 12500. In addition, the “Elastase expression (%)” value in the data set with elastase was 78%.

As to `CN(O)C(=O)c1ccc(N(C)C(=O)C23CC4CC(CC(C4)C2)C3)cc1` [Example 22, adamantyl-N-[4-(N-hydroxy-N-methylcarbamoyl)phenyl]-N-methylcarboxyamide], in the data set with white guinea pigs, the “Evaluation (phototoxicity)” value is given as “No phototoxicity (lower value than 0.5, criterion value to be estimated as no phototoxicity)” and the Phototoxic index turned out to be 0. In the data set on rabbits, the “P.I.I. (Primary Irritation Index)” value is 0.350 and the “Evaluation (skin irritation)” value is on record as “No irritation”. Also, the “Collagen biosynthesis (%)” value in the data set with procollagen type I is 120%. Further, the “Collagenase expression (%)” value in the data set with collagenase worked out at 77%. In addition, on RARγ, the “Luciferase activity RARγ” value is 12400. Further, the “Luciferase activity RARα” value at RARα was found to be 12100. Also, the “Elastase expression (%)” value in the data set with elastase came out at 70%.

In the case of `Cc1ccc(C(=O)Nc2ccc(CC(=O)NO)cc2)cc1` [Example 24, N-[4-(N-hydroxycarbamoylmethyl)phenyl][4-methylphenyl]carboxyamide], in the data set with white guinea pigs, the “Evaluation (phototoxicity)” value was “No phototoxicity (lower value than 0.5, criterion value to be estimated as no phototoxicity)” and the Phototoxic index is 0. Besides, in the data set with rabbits, the “P.I.I. (Primary Irritation Index)” value is 0.321 and the “Evaluation (skin irritation)” value is listed as “No irritation”. Besides, in the data set on procollagen type I, the “Collagen biosynthesis (%)” value is 121%. For the same compound, the “Collagenase expression (%)” value in the data set with collagenase came out at 76%. Further, the “Luciferase activity RARγ” value on RARγ came to 11210. Further, at RARα, the “Luciferase activity RARα” value is 12100. Moreover, the “Elastase expression (%)” value in the data set on elastase is reported as 82%.

Consider `Cc1cccc(C(=O)Nc2ccc(CC(=O)NO)cc2)c1` [Example 25, N-[4-(N-hydroxycarbamoylmethyl)phenyl][3-methylphenyl]carboxyamide], for which, in the data set with white guinea pigs, the “Evaluation (phototoxicity)” value is reported as “No phototoxicity (lower value than 0.5, criterion value to be estimated as no phototoxicity)” and the Phototoxic index stood at 0. Also, in the data set with rabbits, the “P.I.I. (Primary Irritation Index)” value is 0.423 and the “Evaluation (skin irritation)” value is reported as “No irritation”. Moreover, the “Collagen biosynthesis (%)” value with procollagen type I is recorded as 120%. For the same compound, the “Collagenase expression (%)” value in the data set with collagenase turned out to be 70%. The “Luciferase activity RARγ” value at RARγ was found to be 12100. The “Luciferase activity RARα” value at RARα came to 13200. In addition, the “Elastase expression (%)” value with elastase came to 80%.

With `CCc1ccc(C(=O)Nc2ccc(CC(=O)NO)cc2)cc1` [Example 26, N-[4-(N-hydroxycarbamoylmethyl)phenyl][4-ethylphenyl]carboxyamide], in the data set on white guinea pigs, the “Evaluation (phototoxicity)” value is on record as “No phototoxicity (lower value than 0.5, criterion value to be estimated as no phototoxicity)” and the Phototoxic index worked out at 0. In addition, in the data set with rabbits, the “P.I.I. (Primary Irritation Index)” value is 0.321 and the “Evaluation (skin irritation)” value is recorded as “No irritation”. In addition, the “Collagen biosynthesis (%)” value in the data set with procollagen type I worked out at 123%. The “Collagenase expression (%)” value in the data set with collagenase is recorded as 78%. Moreover, the “Luciferase activity RARγ” value at RARγ was 11200. In addition, the “Luciferase activity RARα” value at RARα is reported as 17500. In addition, the “Elastase expression (%)” value in the data set on elastase worked out at 86%.

Consider `CCCc1ccc(C(=O)Nc2ccc(CC(=O)NO)cc2)cc1` [Example 27, N-[4-(N-hydroxycarbamoylmethyl)phenyl][4-propylphenyl]carboxyamide], for which, in the data set with white guinea pigs, the “Evaluation (phototoxicity)” value was “No phototoxicity (lower value than 0.5, criterion value to be estimated as no phototoxicity)” and the Phototoxic index was 0. Moreover, in the data set with rabbits, the “P.I.I. (Primary Irritation Index)” value is reported as 0.568 and the “Evaluation (skin irritation)” value is reported as “No irritation”. For the same compound, the “Collagen biosynthesis (%)” value in the data set with procollagen type I is recorded as 112%. Further, the “Collagenase expression (%)” value in the data set with collagenase amounted to 87%. Also, the “Luciferase activity RARγ” value on RARγ is 11300. The “Luciferase activity RARα” value at RARα was found to be 13920. Also, the “Elastase expression (%)” value with elastase is given as 87%.

On to `CC(C)c1ccc(C(=O)Nc2ccc(CC(=O)NO)cc2)cc1` [Example 28, N-[4-(N-hydroxycarbamoylmethyl)phenyl][4-isopropylphenyl]carboxyamide], for which, in the data set with white guinea pigs, the “Evaluation (phototoxicity)” value is reported as “No phototoxicity (lower value than 0.5, criterion value to be estimated as no phototoxicity)” and the Phototoxic index is recorded as 0. Moreover, in the data set with rabbits, the “P.I.I. (Primary Irritation Index)” value was found to be 0.765 and the “Evaluation (skin irritation)” value was “No irritation”. Further, the “Collagen biosynthesis (%)” value with procollagen type I turned out to be 121%. Also, in the data set on collagenase, the “Collagenase expression (%)” value is recorded as 67%. For the same compound, at RARγ, the “Luciferase activity RARγ” value is reported as 10700. Also, the “Luciferase activity RARα” value at RARα is on record as 12900. Besides, the “Elastase expression (%)” value with elastase is given as 79%.

`CCCCc1ccc(C(=O)Nc2ccc(CC(=O)NO)cc2)cc1` [Example 29, N-[4-(N-hydroxycarbamoylmethyl)phenyl][4-butylphenyl]carboxyamide]: in the data set with white guinea pigs, the “Evaluation (phototoxicity)” value was “No phototoxicity (lower value than 0.5, criterion value to be estimated as no phototoxicity)” and the Phototoxic index is on record as 0. In the data set on rabbits, the “P.I.I. (Primary Irritation Index)” value is 0.234 and the “Evaluation (skin irritation)” value was “No irritation”. Further, in the data set with procollagen type I, the “Collagen biosynthesis (%)” value was 132%. Further, in the data set on collagenase, the “Collagenase expression (%)” value came to 77%. In addition, at RARγ, the “Luciferase activity RARγ” value is listed as 10600. The “Luciferase activity RARα” value on RARα is on record as 18900. For the same compound, the “Elastase expression (%)” value with elastase was found to be 70%.

As for `CC(C)(C)c1ccc(C(=O)Nc2ccc(CC(=O)NO)cc2)cc1` [Example 30, N-[4-(N-hydroxycarbamoylmethyl)phenyl][4-tert-butylphenyl]carboxyamide], in the data set on white guinea pigs, the “Evaluation (phototoxicity)” value is listed as “No phototoxicity (lower value than 0.5, criterion value to be estimated as no phototoxicity)” and the Phototoxic index was 0. In the data set with rabbits, the “P.I.I. (Primary Irritation Index)” value is listed as 0.456 and the “Evaluation (skin irritation)” value was “No irritation”. In the data set with procollagen type I, the “Collagen biosynthesis (%)” value is reported as 121%. Further, the “Collagenase expression (%)” value with collagenase was found to be 83%. Further, the “Luciferase activity RARγ” value on RARγ turned out to be 12000. The “Luciferase activity RARα” value on RARα is 23500. In addition, the “Elastase expression (%)” value in the data set on elastase turned out to be 69%.

Take `Cc1ccc(C(=O)Nc2ccc(CC(=O)NO)cc2)cc1C` [Example 31, N-[4-(N-hydroxycarbamoylmethyl)phenyl][3,4-dimethylphenyl]carboxyamide]: in the data set on white guinea pigs, the “Evaluation (phototoxicity)” value is given as “No phototoxicity (lower value than 0.5, criterion value to be estimated as no phototoxicity)” and the Phototoxic index amounted to 0. Moreover, in the data set with rabbits, the “P.I.I. (Primary Irritation Index)” value is 0.567 and the “Evaluation (skin irritation)” value is “No irritation”. In addition, in the data set with procollagen type I, the “Collagen biosynthesis (%)” value turned out to be 109%. In addition, the “Collagenase expression (%)” value in the data set with collagenase came out at 81%. The “Luciferase activity RARγ” value at RARγ is 10700. The “Luciferase activity RARα” value on RARα came out at 23100. Moreover, in the data set on elastase, the “Elastase expression (%)” value is 63%.
